Like-named read-outs stand apart in the source and are kept apart here.
How the values were obtained:
Assay in all cases: KINOMEscan ScanTK
Format in all cases: binding
TRKA = target: T1, TRKA (Homo sapiens, UniProt P04629); details: TRKA
T1 construct: purchased Eurofins DiscoverX KINOMEscan (scanTK)

CSF1R = target: T2, CSF1R (Homo sapiens, UniProt P07333)
T2 construct: purchased Eurofins DiscoverX KINOMEscan (scanTK)

EPHB1 = target: T3, EPHB1 (Homo sapiens, UniProt P54762); details: EPHB1
T3 construct: purchased Eurofins DiscoverX KINOMEscan (scanTK)
T3 sequence (P54762 18-984): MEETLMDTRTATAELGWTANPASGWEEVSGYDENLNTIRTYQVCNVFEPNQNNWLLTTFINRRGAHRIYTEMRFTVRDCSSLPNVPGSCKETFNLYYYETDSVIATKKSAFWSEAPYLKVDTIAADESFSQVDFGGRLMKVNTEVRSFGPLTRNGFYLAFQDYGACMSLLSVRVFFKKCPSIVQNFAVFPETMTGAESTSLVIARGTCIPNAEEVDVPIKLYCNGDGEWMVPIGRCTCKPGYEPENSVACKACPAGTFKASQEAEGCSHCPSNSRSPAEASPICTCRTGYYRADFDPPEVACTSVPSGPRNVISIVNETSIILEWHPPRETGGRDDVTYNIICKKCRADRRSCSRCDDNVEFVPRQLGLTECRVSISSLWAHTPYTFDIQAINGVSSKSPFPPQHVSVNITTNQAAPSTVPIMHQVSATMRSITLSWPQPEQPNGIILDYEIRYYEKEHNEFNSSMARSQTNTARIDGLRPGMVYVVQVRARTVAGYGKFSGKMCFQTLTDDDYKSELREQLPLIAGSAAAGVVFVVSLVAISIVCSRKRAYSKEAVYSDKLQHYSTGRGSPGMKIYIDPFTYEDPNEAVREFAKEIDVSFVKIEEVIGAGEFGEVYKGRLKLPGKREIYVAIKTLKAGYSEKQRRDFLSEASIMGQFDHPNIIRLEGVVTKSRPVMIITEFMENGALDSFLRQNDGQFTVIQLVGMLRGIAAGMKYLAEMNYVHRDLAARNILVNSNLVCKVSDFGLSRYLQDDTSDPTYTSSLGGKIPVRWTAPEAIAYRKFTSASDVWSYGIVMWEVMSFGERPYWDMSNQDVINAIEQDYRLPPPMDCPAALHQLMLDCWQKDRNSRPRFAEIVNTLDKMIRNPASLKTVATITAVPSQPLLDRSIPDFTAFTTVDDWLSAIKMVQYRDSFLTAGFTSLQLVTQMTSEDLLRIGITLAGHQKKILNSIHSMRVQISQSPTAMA

[1] = target: T4, EGFR(L747-E749del, A750P) (Homo sapiens, UniProt P00533, A750P/DEL747-749)
T4 construct: purchased Eurofins DiscoverX KINOMEscan (scanTK)

LTK = target: T5, LTK (Homo sapiens, UniProt P29376)
T5 construct: purchased Eurofins DiscoverX KINOMEscan (scanTK)

PDGFRB = target: T6, PDGFRB (Homo sapiens, UniProt P09619)
T6 construct: purchased Eurofins DiscoverX KINOMEscan (scanTK)

ALK(C1156Y) = target: T7, ALK(C1156Y) (Homo sapiens, UniProt Q9UM73, C1156Y)
T7 construct: purchased Eurofins DiscoverX KINOMEscan (scanTK)

ABL1-phosphorylated = target: T8, ABL1-phosphorylated (Homo sapiens, UniProt P00519)
T8 construct: purchased Eurofins DiscoverX KINOMEscan (scanTK)

FGFR2 = target: T9, FGFR2 (Homo sapiens, UniProt P21802)
T9 construct: purchased Eurofins DiscoverX KINOMEscan (scanTK)

TIE2 = target: T10, TIE2 (Homo sapiens, UniProt Q02763)
T10 construct: purchased Eurofins DiscoverX KINOMEscan (scanTK)

FYN = target: T11, FYN (Homo sapiens, UniProt P06241)
T11 construct: purchased Eurofins DiscoverX KINOMEscan (scanTK)

[2] = target: T12, ABL1(E255K)-phosphorylated (Homo sapiens, UniProt P00519, E255K)
T12 construct: purchased Eurofins DiscoverX KINOMEscan (scanTK)

BRK = target: T13, BRK (Homo sapiens, UniProt Q13882)
T13 construct: purchased Eurofins DiscoverX KINOMEscan (scanTK)

KIT(A829P) = target: T14, KIT(A829P) (Homo sapiens, UniProt P10721, A829P)
T14 construct: purchased Eurofins DiscoverX KINOMEscan (scanTK)

[3] = target: T15, JAK2(JH1domain-catalytic) (Homo sapiens, UniProt O60674)
T15 construct: JAK2(JH1domain-catalytic); purchased Eurofins DiscoverX KINOMEscan (scanTK)

EGFR(G719S) = target: T16, EGFR(G719S) (Homo sapiens, UniProt P00533, G719S)
T16 construct: purchased Eurofins DiscoverX KINOMEscan (scanTK)

T1 sequence (P04629 33-796): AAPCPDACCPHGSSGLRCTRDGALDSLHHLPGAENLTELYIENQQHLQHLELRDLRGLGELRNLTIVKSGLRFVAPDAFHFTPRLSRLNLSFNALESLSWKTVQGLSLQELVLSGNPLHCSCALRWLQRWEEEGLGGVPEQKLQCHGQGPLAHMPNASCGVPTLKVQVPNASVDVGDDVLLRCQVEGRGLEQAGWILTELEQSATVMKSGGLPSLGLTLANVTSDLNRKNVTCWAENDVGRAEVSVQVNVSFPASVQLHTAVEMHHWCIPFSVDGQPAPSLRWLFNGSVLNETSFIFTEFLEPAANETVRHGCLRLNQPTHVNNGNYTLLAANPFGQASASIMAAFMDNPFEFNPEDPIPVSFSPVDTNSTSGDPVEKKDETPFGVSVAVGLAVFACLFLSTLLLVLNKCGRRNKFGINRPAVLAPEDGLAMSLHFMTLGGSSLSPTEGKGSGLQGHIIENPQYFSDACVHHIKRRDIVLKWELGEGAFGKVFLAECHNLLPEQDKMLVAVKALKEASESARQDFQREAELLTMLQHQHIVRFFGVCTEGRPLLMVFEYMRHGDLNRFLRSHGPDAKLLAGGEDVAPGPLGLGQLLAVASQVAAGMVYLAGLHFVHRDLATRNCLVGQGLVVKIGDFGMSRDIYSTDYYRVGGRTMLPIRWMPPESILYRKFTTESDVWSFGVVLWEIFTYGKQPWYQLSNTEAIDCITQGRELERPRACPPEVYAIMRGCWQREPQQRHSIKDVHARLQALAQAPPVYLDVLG
T2 sequence (P07333 20-972): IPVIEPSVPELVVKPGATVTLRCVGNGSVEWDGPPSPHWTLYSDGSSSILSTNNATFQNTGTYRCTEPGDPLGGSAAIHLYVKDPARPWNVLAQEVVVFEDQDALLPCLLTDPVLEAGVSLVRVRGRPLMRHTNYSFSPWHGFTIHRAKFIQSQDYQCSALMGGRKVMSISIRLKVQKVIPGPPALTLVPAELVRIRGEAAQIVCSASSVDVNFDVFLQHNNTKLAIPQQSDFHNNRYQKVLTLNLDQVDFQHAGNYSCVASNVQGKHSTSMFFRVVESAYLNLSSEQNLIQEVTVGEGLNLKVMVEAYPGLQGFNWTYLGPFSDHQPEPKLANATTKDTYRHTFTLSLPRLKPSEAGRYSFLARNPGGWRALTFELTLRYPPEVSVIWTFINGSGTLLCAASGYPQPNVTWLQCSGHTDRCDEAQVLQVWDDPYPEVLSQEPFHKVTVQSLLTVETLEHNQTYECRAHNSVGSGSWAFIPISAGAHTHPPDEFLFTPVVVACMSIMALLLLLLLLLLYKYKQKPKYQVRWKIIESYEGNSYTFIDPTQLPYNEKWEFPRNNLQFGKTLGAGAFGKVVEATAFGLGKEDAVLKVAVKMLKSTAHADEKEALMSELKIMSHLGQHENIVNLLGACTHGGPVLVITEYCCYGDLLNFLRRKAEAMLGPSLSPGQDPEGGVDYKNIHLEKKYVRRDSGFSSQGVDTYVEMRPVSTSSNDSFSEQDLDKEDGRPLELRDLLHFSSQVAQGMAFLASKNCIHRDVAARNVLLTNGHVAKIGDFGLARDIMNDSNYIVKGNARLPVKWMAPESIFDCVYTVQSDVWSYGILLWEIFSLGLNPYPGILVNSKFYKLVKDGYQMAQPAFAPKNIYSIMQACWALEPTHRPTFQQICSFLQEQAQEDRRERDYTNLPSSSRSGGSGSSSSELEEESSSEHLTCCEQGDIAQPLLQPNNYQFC
T12 sequence (P00519 whole entry E255K): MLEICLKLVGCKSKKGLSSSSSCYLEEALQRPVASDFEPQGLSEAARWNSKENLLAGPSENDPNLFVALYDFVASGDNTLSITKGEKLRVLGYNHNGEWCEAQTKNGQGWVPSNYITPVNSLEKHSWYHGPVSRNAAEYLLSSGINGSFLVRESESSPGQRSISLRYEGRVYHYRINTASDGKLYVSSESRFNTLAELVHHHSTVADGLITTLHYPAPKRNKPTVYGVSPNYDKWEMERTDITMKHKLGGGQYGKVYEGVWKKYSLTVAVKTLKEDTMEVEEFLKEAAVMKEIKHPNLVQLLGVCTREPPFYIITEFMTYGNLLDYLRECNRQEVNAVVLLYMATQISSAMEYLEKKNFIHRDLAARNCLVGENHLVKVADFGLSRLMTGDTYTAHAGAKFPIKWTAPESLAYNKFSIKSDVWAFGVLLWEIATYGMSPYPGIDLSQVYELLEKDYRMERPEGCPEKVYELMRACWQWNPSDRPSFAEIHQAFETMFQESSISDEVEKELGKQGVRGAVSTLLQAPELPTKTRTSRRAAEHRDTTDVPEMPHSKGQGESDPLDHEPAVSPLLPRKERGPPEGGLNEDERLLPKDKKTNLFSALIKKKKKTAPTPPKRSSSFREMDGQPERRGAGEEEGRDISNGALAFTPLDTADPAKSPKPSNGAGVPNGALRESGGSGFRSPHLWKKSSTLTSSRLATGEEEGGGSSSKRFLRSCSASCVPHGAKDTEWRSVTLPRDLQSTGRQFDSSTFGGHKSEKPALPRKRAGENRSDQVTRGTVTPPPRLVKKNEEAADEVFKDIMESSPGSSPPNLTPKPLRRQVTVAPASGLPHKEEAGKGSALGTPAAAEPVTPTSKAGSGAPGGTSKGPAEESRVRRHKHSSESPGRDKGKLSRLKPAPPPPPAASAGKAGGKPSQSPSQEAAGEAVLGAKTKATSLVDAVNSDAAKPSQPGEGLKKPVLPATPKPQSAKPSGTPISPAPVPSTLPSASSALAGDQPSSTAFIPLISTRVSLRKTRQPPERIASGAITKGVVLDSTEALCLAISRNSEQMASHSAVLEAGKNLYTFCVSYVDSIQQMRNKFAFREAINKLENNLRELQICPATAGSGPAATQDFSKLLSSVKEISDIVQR
T8 sequence (P00519 whole entry): as the sequence (P00519 whole entry E255K) above, with K255E counted along it
T9 sequence (P21802 22-821): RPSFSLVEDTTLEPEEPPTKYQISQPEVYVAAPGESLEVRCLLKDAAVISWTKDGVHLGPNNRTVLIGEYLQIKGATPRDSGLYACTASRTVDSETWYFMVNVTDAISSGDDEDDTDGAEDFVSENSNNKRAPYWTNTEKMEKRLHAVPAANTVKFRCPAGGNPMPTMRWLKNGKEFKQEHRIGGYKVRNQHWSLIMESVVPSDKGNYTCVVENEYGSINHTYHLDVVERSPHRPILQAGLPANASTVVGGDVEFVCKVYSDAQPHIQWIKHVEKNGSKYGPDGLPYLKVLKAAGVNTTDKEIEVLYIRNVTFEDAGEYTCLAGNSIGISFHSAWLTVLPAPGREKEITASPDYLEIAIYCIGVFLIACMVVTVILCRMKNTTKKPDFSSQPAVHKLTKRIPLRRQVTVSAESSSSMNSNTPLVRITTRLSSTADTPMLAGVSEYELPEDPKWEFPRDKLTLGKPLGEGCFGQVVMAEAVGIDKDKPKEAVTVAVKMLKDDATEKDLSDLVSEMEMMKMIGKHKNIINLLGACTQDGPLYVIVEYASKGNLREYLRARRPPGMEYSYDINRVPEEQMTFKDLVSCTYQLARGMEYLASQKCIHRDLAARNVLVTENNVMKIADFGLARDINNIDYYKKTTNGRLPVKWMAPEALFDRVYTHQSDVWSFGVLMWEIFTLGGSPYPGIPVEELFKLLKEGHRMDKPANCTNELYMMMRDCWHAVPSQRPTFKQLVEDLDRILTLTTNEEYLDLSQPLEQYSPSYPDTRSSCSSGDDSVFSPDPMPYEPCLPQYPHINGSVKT
T15 sequence (O60674 849-1132 limits assumed): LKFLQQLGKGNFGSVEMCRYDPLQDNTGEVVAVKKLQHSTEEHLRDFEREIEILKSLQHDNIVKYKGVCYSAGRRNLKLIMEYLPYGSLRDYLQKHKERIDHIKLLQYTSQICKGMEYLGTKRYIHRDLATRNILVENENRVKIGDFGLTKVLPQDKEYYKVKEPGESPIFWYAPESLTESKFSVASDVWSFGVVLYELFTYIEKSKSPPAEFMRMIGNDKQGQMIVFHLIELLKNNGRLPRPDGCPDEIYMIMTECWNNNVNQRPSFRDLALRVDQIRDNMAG
T13 sequence (Q13882 whole entry): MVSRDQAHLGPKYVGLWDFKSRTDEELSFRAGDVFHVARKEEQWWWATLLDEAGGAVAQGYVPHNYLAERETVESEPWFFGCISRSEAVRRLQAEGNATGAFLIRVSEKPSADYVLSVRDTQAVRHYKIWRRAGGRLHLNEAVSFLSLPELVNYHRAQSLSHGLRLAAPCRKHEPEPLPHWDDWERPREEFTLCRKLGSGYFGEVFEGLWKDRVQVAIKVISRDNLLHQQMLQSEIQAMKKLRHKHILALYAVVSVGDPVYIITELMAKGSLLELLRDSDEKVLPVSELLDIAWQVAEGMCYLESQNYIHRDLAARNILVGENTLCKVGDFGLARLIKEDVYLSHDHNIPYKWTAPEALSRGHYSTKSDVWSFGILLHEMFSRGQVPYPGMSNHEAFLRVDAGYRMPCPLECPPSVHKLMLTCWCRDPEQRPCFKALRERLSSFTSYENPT
T4 sequence (P00533 with tags, fused parts or gaps DEL747-749/A750P limits assumed): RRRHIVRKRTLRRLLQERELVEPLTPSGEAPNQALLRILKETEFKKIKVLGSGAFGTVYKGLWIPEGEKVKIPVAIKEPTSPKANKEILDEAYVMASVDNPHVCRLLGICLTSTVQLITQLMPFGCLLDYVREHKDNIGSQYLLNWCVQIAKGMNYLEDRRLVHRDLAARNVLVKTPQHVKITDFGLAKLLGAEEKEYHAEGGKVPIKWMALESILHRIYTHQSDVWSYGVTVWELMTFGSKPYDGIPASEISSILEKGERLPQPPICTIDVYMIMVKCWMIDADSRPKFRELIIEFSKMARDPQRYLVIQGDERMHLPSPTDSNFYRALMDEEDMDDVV

COC(=O)c1cnc(S(C)(=O)=O)nc1N1CCCC(n2nc(-c3ccc(Oc4ccccc4)cc3)c3c(N)ncnc32)C1 (centres unmarked) [Compound 8b, Methyl 4-(3-(4-Amino-3-(4-phenoxyphenyl)-1H-pyrazolo[3,4-d]pyrimidin-1-yl)piperidin-1-yl)-2-(methylsulfonyl)pyrimidine-5-carboxylate]
difference in % of control versus compound Ib at 1 µM (TRKA; @1000nM): 4%
remaining binding at 1 µM (TRKA; @1000nM, read-out: %Control): 89%
remaining binding at 1 µM (TRKA; read-out: %Control @1000nM): 89%
difference in %Control versus compound Ib at 1 µM (CSF1R; @1000nM): 12%
remaining binding at 1 µM (CSF1R; @1000nM, read-out: %Control): 92%
remaining binding at 1 µM (CSF1R; read-out: %Control @1000nM): 92%
difference in % of control versus compound Ib at 1 µM (EPHB1; @1000nM): -2%
remaining binding at 1 µM (EPHB1; @1000nM, read-out: %Control): 88%
remaining binding at 1 µM (EPHB1; read-out: %Control @1000nM): 88%
difference in %Control versus compound Ib at 1 µM ([1]; @1000nM): 69.9%
remaining binding at 1 µM ([1]; @1000nM, read-out: %Control): 73%
remaining binding at 1 µM ([1]; read-out: %Control @1000nM): 73%
remaining binding at 1 µM (LTK; @1000nM, read-out: %Control): 94%
remaining binding at 1 µM (LTK; read-out: %Control @1000nM): 94%
remaining binding at 1 µM (PDGFRB; @1000nM, read-out: %Control): 68%
remaining binding at 1 µM (PDGFRB; read-out: %Control @1000nM): 68%
difference in %Control versus compound Ib at 1 µM (ALK(C1156Y); @1000nM): -8%
remaining binding at 1 µM (ALK(C1156Y); @1000nM, read-out: %Control): 90%
remaining binding at 1 µM (ALK(C1156Y); read-out: %Control @1000nM): 90%
difference in %Control from compound Ib at 1 µM (ABL1-phosphorylated; @1000nM): 19%
remaining binding at 1 µM (ABL1-phosphorylated; @1000nM, read-out: %Control): 79%
remaining binding at 1 µM (ABL1-phosphorylated; read-out: %Control @1000nM): 79%
difference in %Control vs compound Ib at 1 µM (FGFR2; @1000nM): 47%
remaining binding at 1 µM (FGFR2; @1000nM, read-out: %Control): 86%
remaining binding at 1 µM (FGFR2; read-out: %Control @1000nM): 86%
remaining binding at 1 µM (TIE2; @1000nM, read-out: %Control): 72%
remaining binding at 1 µM (TIE2; read-out: %Control @1000nM): 72%
difference in % of control versus compound Ib at 1 µM (FYN; @1000nM): 16.4%
remaining binding at 1 µM (FYN; @1000nM, read-out: %Control): 26%
remaining binding at 1 µM (FYN; read-out: %Control @1000nM): 26%
difference in %Control from reference Ib at 1 µM ([2]; @1000nM, read-out: % difference (compound - Ib %Control)): 17%
remaining binding at 1 µM ([2]; @1000nM, read-out: %Control): 81%
remaining binding at 1 µM ([2]; read-out: %Control @1000nM): 81%
difference in %Control relative to compound Ib at 1 µM (BRK; @1000nM): 40.7%
remaining binding at 1 µM (BRK; @1000nM, read-out: %Control): 42%
remaining binding at 1 µM (BRK; read-out: %Control @1000nM): 42%
remaining binding at 1 µM (KIT(A829P); @1000nM, read-out: %Control): 70%
remaining binding at 1 µM (KIT(A829P); read-out: %Control @1000nM): 70%
difference in %Control vs compound Ib at 1 µM ([3]; @1000nM): -18%
remaining binding at 1 µM ([3]; @1000nM, read-out: %Control): 82%
remaining binding at 1 µM ([3]; read-out: %Control @1000nM): 82%
difference in %Control from compound Ib at 1 µM (EGFR(G719S); @1000nM): 84.4%
remaining binding at 1 µM (EGFR(G719S); @1000nM, read-out: %Control): 85%
remaining binding at 1 µM (EGFR(G719S); read-out: %Control @1000nM): 85%
